Laboratory results taken from ChEMBL document CHEMBL1129195, “New antithrombotic RGD-mimetics with high bioavailability” (1996).

How the values were obtained:
Cavia porcellus [1] = assay: Ex vivo inhibition of collagen-induced platelet aggregation in guinea pig after p.o. administration.
Cavia porcellus [2] = assay: Ex vivo inhibition of collagen-induced platelet aggregation in guinea pig after i.v. administration.; format: functional; conditions: iv
Monkey [3] = assay: Ex vivo inhibition of collagen-induced platelet aggregation in cynomolgus monkey after p.o. administration.; format: functional; conditions: Cercopithecidae, in Macaca fascicularis, po
Monkey [4] = assay: Ex vivo inhibition of collagen-induced platelet aggregation in cynomolgus monkey after i.v. administration.; format: functional; conditions: Cercopithecidae, in Macaca fascicularis, iv

CC(C)(C)OC(=O)CCN1CCN(CC2CN(c3ccc(C(=N)NC(=O)c4ccccc4)cc3)C(=O)O2)CC1 (configuration not stated)
ED50 (Cavia porcellus [1]): > 10 mg/kg

N/C(=N/C(=O)c1ccccc1)c1ccc(N2C[C@@H](CN3CCN(CC(=O)O)CC3)OC2=O)cc1
ED50 (Cavia porcellus [1]): > 10 mg/kg

CCOC(=O)CN1CCN(C[C@@H]2CN(c3ccc(C(=N)N)cc3)C(=O)O2)CC1
ED50 (Cavia porcellus [2]): 0.08 mg/kg | ED50 (Cavia porcellus [1]): > 1 mg/kg

COC(=O)CN1CCN(C[C@@H]2CN(c3ccc(C(=N)NC(=O)OC)cc3)C(=O)O2)CC1
ED50 (Monkey [3]): 0.8 mg/kg | ED50 (Cavia porcellus [1]): 0.1 mg/kg

CCOC(=O)CN1CCN(C[C@@H]2CN(c3ccc(C(=N)NC(=O)OC)cc3)C(=O)O2)CC1 [GANTOFIBAN]
ED50 (Monkey [4]): 0.5 mg/kg | ED50 (Monkey [3]): 0.07 mg/kg | ED50 (Cavia porcellus [1]): 0.2 mg/kg

CCOC(=O)CN1CCN(C[C@@H]2CN(c3ccc(C(=N)NC(=O)OCC)cc3)C(=O)O2)CC1
ED50 (Monkey [3]): 0.7 mg/kg | ED50 (Cavia porcellus [1]): 0.17 mg/kg

CCOC(=O)CN1CCN(C[C@@H]2CN(c3ccc(C(=N)NC(=O)c4ccccc4)cc3)C(=O)O2)CC1
ED50 (Cavia porcellus [2]): 0.09 mg/kg | ED50 (Monkey [4]): 0.13 mg/kg | ED50 (Monkey [3]): 1.3 mg/kg | ED50 (Cavia porcellus [1]): 0.32 mg/kg

COC(=O)/N=C(/N)c1ccc(N2CC(CN3CCN(CC(=O)OC(C)(C)C)CC3)OC2=O)cc1 (configuration not stated)
ED50 (Cavia porcellus [1]): > 1 mg/kg

CCOC(=O)CN1CCN(C[C@@H]2CN(c3ccc(C(=N)NC(=O)C(C)C)cc3)C(=O)O2)CC1
ED50 (Monkey [3]): 1.3 mg/kg | ED50 (Cavia porcellus [1]): 0.4 mg/kg

CC(C)(C)OC(=O)CN1CCN(C[C@@H]2CN(c3ccc(C(=N)NC(=O)c4ccccc4)cc3)C(=O)O2)CC1
ED50 (Cavia porcellus [2]): 0.4 mg/kg | ED50 (Monkey [3]): > 1 mg/kg | ED50 (Cavia porcellus [1]): 1 mg/kg

CCOC(=O)CN1CCN(CC2CN(c3ccc(C(=N)NC(=O)Oc4ccccc4)cc3)C(=O)O2)CC1 (configuration not stated)
ED50 (Cavia porcellus [1]): 0.2 mg/kg

CCOC(=O)CC1(O)CCN(CC2CN(c3ccc(C(=N)NC(=O)c4ccccc4)cc3)C(=O)O2)CC1 (configuration not stated)
ED50 (Cavia porcellus [1]): 3 mg/kg

CC(=O)O/N=C(/N)c1ccc(N2C[C@@H](CN3CCN(CC(=O)O)CC3)OC2=O)cc1
ED50 (Cavia porcellus [1]): > 10 mg/kg

CCOC(=O)CN1CCN(C[C@H]2CN(c3ccc(C(=N)NC(=O)c4ccccc4)cc3)C(=O)O2)CC1
ED50 (Cavia porcellus [1]): > 1 mg/kg

CCOC(=O)CN1CCN(CC2CN(c3ccc(C(=N)NC(=O)c4cccnc4)cc3)C(=O)O2)CC1 (configuration not stated)
ED50 (Cavia porcellus [2]): 1 mg/kg

CCOC(=O)C1CCN(CC2CN(c3ccc(C(=N)NC(=O)c4ccccc4)cc3)C(=O)O2)CC1 (configuration not stated)
ED50 (Cavia porcellus [1]): 10 mg/kg

CCOC(=O)CCN1CCN(C[C@H]2CN(c3ccc(C(=N)NC(=O)c4ccccc4)cc3)C(=O)O2)CC1
ED50 (Cavia porcellus [1]): > 10 mg/kg

CCOC(=O)CN1CCN(C[C@@H]2CN(c3ccc(C(=N)NC(=O)c4ccc(OC)cc4)cc3)C(=O)O2)CC1
ED50 (Monkey [3]): > 1 mg/kg | ED50 (Cavia porcellus [1]): < 1 mg/kg

CCOC(=O)CC1CCN(CC2CN(c3ccc(C(=N)NC(=O)c4ccccc4)cc3)C(=O)O2)CC1 (configuration not stated)
ED50 (Cavia porcellus [1]): 3 mg/kg

CCOC(=O)CN1CCN(C[C@@H]2CN(c3ccc(C(=N)NC(=O)c4cccc(C(F)(F)F)c4)cc3)C(=O)O2)CC1
ED50 (Monkey [3]): > 1 mg/kg | ED50 (Cavia porcellus [1]): < 1 mg/kg

CCOC(=O)CN1CCN(CC2CN(c3ccc(C(=N)NC(=O)OC)cc3)C(=O)O2)CC1 (configuration not stated)
ED50 (Cavia porcellus [2]): 0.4 mg/kg | ED50 (Cavia porcellus [1]): 0.4 mg/kg

CCOC(=O)CN1CCN(C[C@@H]2CN(c3ccc(C(=N)NC(=O)OCc4ccccc4)cc3)C(=O)O2)CC1
ED50 (Monkey [3]): > 1 mg/kg | ED50 (Cavia porcellus [1]): < 1 mg/kg

CC(C)(C)OC(=O)CN1CCN(C[C@@H]2CN(c3ccc(C(=N)N)cc3)C(=O)O2)CC1
ED50 (Cavia porcellus [2]): 1 mg/kg

CCOC(=O)CCN1CCN(C[C@@H]2CN(c3ccc(C(=N)NC(=O)c4ccccc4)cc3)C(=O)O2)CC1
ED50 (Cavia porcellus [1]): > 1 mg/kg

CCOC(=O)CN1CCN(CC2CN(c3ccc(C(=N)NC(=O)c4ccco4)cc3)C(=O)O2)CC1 (configuration not stated)
ED50 (Monkey [3]): > 1 mg/kg | ED50 (Cavia porcellus [1]): < 1 mg/kg

CCOC(=O)CCN1CCN(CC2CN(c3ccc(C(=N)NC(=O)OC)cc3)C(=O)O2)CC1 (configuration not stated)
ED50 (Cavia porcellus [1]): > 10 mg/kg
